Measurements published in patent US12569453B2, “Use of tapinarof for the treatment of atopic dermatitis” (Dermavant Sciences GmbH, priority 2018, dated 2026).

Tested on: adolescent and adult subjects with AD
Assay: Phase II clinical study in AD: efficacy and subject-reported outcomes
Type: in vivo, human
Details: for itch reduction in weekly average NRS (median): Week 4; for probability of achieving EASI75 / probability of achieving IGA treatment success: model; for patients with 75% improvement in EASI score: post-hoc analysis
Text: This was a multicenter (United States, Canada, and Japan), randomized, double-blind (Sponsor-unblind), vehicle-controlled, 6-arm, parallel-group, dose-finding study in adolescent and adult subjects with AD.
The study consisted of 3 periods: up to 4 weeks screening, 12 weeks double-blind treatment, and 4 weeks post-treatment Follow-up. Study visits occurred at Screening; Baseline; Weeks 1, 2, 4, 8, and 12 during the treatment period; and 2 and 4 weeks after the last application of study treatment (i.e., at Weeks 14 and 16). Additional visits could occur, as needed, to follow-up on any skin reactions or ongoing AEs. A subject's total duration of study participation was approximately 16 to 20 weeks.
Two concentrations of Tapinarof cream (0.5% and 1%) and a vehicle control were evaluated following application to all AD lesions (except on the scalp) once or twice daily for 12 weeks. There were no planned dose adjustments during the study. It was expected that approximately 270 adolescent and adult subjects with AD would be screened to achieve 228 randomized subjects (1:1:1:1:1:1; N=3 8 for each of the 6 treatment groups) and approximately 204 evaluable subjects overall. At least 30 subjects were to be randomized in Japan to achieve at least 24 evaluable Japanese subjects. To ensure an adequate number of adolescents (aged 12 to 17 years) versus adults were represented in the overall study population, enrollment was limited to approximately 65% of either age group.
Efficacy was assessed by using a 5-point static Investigator Global Assessment (IGA) (0-4 scale), the Eczema Area and Severity Index (EASI), percent of body surface area (% BSA) involvement, severity of AD signs using a Total Severity Score (TSS), and by subject-reported itch/pruritus severity using a numeric rating scale (NRS) (from the Daily Sign and Symptom Severity Diary). Additional subject-reported outcomes included the expanded Patient-Oriented Eczema Measure (POEM), a Daily Sign and Symptom Severity Diary, and subject impression of severity of eczema symptoms and overall change in severity of eczema symptoms and overall change in itch/pruritus items. There was also an investigator global impression of change item.
Investigator's Global Assessment: The IGA is a clinical tool for assessing the current state/severity of a subject's AD. It is a static 5-point morphological assessment of overall disease severity, as determined by the investigator, using the clinical characteristics of erythema, infiltration, papulation, oozing, and crusting as guidelines. At each specified time point, the IGA was made without reference to previous scores. Scoring system ranges from 0 (=Clear) to 4 (=Severe).
Eczema Area and Severity Index: The EASI scoring system is a standard clinical tool for assessing the severity of AD that takes into account the overall severity of erythema, infiltration/papulation, excoriation, and lichenification, as well as the extent of BSA affected with AD. The 4 clinical signs are each graded on a 4-point scale (0 to 3) for each of the 4 specified body regions (head and neck, upper extremities, lower extremities, and trunk). The EASI is a static assessment made without reference to previous scores.
Body Surface Area: The extent of BSA affected by AD is a general indicator of disease severity and was measured throughout the study. The extent of BSA to which study treatment was applied was also recorded. For the purpose of approximate clinical estimation, the total palmar surface of the palm plus 5 digits was assumed to be approximately equivalent to 1% BSA.
Total Severity Score: A single target lesion that measured at least 3 cm at Screening and Baseline and was representative of subject disease, but not located on hands, feet or genitalia, was selected at Baseline to assess efficacy in treating a discrete area rather than an overall average of all areas. […]

[1] = 0.5% BID, Week 8, interim analysis
[2] = 0.5% QD, Week 8, interim analysis
[3] = 1% BID, Week 8, interim analysis
[4] = 1% QD, Week 8, interim analysis

CC(C)c1c(O)cc(/C=C/c2ccccc2)cc1O [Tapinarof, 3,5-Dihydroxy-4-isopropyl-trans-stilbene]
EASI75 responders who maintained response from Week 12 to Week 16 (0.5% BID): 82%
difference in probability of achieving EASI75 vs vehicle (0.5% BID): 42.6%
itch reduction in weekly average NRS (median) (0.5% BID, interim analysis): −53.00%
IGA response rate (IGA 0 or 1 and ≥2-grade improvement) [1]: 35%
subjects with 75% reduction in EASI from Baseline [1]: 59%
difference in probability of IGA response vs vehicle (0.5% BID, Week 12): 22.4%
expanded POEM item 8 (nights woken because of eczema), mean change (0.5% BID, Week 12): −1.3
patients with minimum three-point improvement in itch NRS (0.5% BID, Week 12): 33%
subjects reporting severity of AD symptoms as very improved (0.5% BID, Week 12): 47%
IGA response rate (IGA 0 or 1 and ≥2-grade improvement) (0.5% BID, Week 12, NRI): 37%
probability of achieving EASI75 (0.5% BID, Week 12): 54.2%
probability of achieving IGA treatment success (0.5% BID, Week 12): 28.7%
difference in probability of achieving EASI75 vs vehicle (0.5% QD): 28.9%
itch reduction in weekly average NRS (median) (0.5% QD, interim analysis): −53.57%
IGA response rate (IGA 0 or 1 and ≥2-grade improvement) [2]: 40%
subjects with 75% reduction in EASI from Baseline [2]: 35%
difference in probability of IGA response vs vehicle (0.5% QD, Week 12): 15.7%
expanded POEM item 8 (nights woken because of eczema), mean change (0.5% QD, Week 12): −1.2
patients with minimum three-point improvement in itch NRS (0.5% QD, Week 12): 29%
subjects reporting severity of AD symptoms as very improved (0.5% QD, Week 12): 40%
IGA response rate (IGA 0 or 1 and ≥2-grade improvement) (0.5% QD, Week 12, NRI): 34%
probability of achieving EASI75 (0.5% QD, Week 12): 32.6%
probability of achieving IGA treatment success (0.5% QD, Week 12): 18.3%
proportion of subjects with IGA treatment success (0.5% QD, Week 12, primary analysis): 40%
subjects rating pruritus symptoms very improved or moderately improved (0.5% groups, Week 12): 80-81%
EASI75 responders who maintained response from Week 12 to Week 16 (1% BID): 63%
difference in probability of achieving EASI75 vs vehicle (1% BID): 74.5%
itch reduction in weekly average NRS (median) (1% BID, interim analysis): −56.35%
IGA response rate (IGA 0 or 1 and ≥2-grade improvement) [3]: 35%
subjects with 75% reduction in EASI from Baseline [3]: 45%
absolute change in percent BSA affected from baseline (mean) (1% BID, Week 12): 11.2
difference in probability of IGA response vs vehicle (1% BID, Week 12): 61.5%
patients rating itch moderately improved to very improved (1% BID, Week 12): 78%
patients with minimum three-point improvement in itch NRS (1% BID, Week 12): 30%
reduction in total severity score (mean change) (1% BID, Week 12): 5.8
subjects reporting severity of AD symptoms as very improved (1% BID, Week 12): 64%
IGA response rate (IGA 0 or 1 and ≥2-grade improvement) (1% BID, Week 12, NRI): 53%
probability of achieving EASI75 (1% BID, Week 12): 86.0%
probability of achieving IGA treatment success (1% BID, Week 12): 67.7%
patients with 75% improvement in EASI score (1% BID, Week 12): 60%
EASI75 responders who maintained response from Week 12 to Week 16 (1% QD): 57%
difference in probability of achieving EASI75 vs vehicle (1% QD): 77.0%
itch reduction in weekly average NRS (median) (1% QD, interim analysis): −57.14%
IGA response rate (IGA 0 or 1 and ≥2-grade improvement) [4]: 74%
subjects with 75% reduction in EASI from Baseline [4]: 63%
absolute change in percent BSA affected from baseline (mean) (1% QD, Week 12): 11.6
difference in probability of IGA response vs vehicle (1% QD, Week 12): 60.1%
patients rating itch moderately improved to very improved (1% QD, Week 12): 86%
patients with minimum three-point improvement in itch NRS (1% QD, Week 12): 32%
reduction in total severity score (mean change) (1% QD, Week 12): 5.5
subjects reporting severity of AD symptoms as very improved (1% QD, Week 12): 59%
IGA response rate (IGA 0 or 1 and ≥2-grade improvement) (1% QD, Week 12, NRI): 46%
probability of achieving EASI75 (1% QD, Week 12): 80.7%
probability of achieving IGA treatment success (1% QD, Week 12): 62.6%
patients with 75% improvement in EASI score (1% QD, Week 12): 51%
subjects rating pruritus symptoms very improved or moderately improved (1% groups, Week 12): 78-87%
subjects with minimum 3-point improvement in itch/pruritus (Japanese population, 1% QD, Week 4 to Week 12): approximately 70%
subjects rating severity of itch very improved or moderately improved (Tapinarof groups, Week 12): ≥ 78%
subjects rating severity of eczema symptoms very improved or moderately improved (active treatment groups, Week 12): > 80%
subjects rated by investigators as very improved or moderately improved (adolescent population, active treatment groups): ≥ 90%
